The source made the active and inactive calls. The rule behind the calls is not given here.
Columns and labels:
Test in all cases: CXCR6 receptor antagonists, dose response, cell-based, beta-arrestin, DiscoveRx, APJ panel, uHTS hits (AID 624129)
[1] = molecular target: Apelin receptor (Homo sapiens) (UniProt P35414); settings: CXCR6 beta-arrestin (DiscoveRx) antagonist cell assay, APJ
[2] = molecular target: Beta-galactosidase (Escherichia coli) (UniProt Q8VNN2); settings: CXCR6 beta-arrestin (DiscoveRx) antagonist cell assay, b-galactosidase
Chain of Beta-galactosidase (Escherichia coli) (Q8VNN2 whole entry, looked up): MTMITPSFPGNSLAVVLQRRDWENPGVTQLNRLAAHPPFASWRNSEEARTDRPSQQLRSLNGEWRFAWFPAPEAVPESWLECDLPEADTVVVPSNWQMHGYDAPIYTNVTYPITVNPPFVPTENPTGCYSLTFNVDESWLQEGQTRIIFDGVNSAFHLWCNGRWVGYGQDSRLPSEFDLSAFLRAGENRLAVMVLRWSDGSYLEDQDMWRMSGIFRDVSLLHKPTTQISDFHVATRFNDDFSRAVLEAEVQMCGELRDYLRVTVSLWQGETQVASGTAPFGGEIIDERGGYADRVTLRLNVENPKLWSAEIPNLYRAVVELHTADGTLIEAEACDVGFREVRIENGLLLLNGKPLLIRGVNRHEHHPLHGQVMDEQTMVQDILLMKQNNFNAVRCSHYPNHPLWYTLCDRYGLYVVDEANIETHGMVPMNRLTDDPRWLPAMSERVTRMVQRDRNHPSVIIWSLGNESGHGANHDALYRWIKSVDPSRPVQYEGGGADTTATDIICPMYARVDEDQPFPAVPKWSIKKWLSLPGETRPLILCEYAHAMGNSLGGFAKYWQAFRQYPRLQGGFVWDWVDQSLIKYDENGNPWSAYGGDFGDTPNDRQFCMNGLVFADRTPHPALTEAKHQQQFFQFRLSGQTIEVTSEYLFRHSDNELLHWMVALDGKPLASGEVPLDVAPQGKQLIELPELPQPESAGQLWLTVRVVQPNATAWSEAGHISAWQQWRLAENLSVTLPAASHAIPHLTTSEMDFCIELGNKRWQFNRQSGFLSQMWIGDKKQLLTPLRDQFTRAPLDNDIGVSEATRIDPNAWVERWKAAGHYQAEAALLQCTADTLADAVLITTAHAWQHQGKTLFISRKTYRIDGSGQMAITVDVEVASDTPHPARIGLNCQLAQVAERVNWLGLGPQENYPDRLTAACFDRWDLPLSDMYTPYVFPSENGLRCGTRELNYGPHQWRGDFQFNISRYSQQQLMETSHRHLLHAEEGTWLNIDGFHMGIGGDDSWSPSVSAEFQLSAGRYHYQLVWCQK

[3] = molecular target: C-C chemokine receptor type 6 (Homo sapiens) (UniProt P51684); settings: CXCR6 beta-arrestin (DiscoveRx) antagonist cell assay
[4] = molecular target: C-X-C chemokine receptor type 6 (Homo sapiens) (UniProt O00574); settings: CXCR6 beta-arrestin (DiscoveRx) antagonist cell assay; for inhibition: CXCR6, run 1, dose range 2, at 80 µM (top of the series)
Chain of C-X-C chemokine receptor type 6 (Homo sapiens) (O00574 whole entry, looked up): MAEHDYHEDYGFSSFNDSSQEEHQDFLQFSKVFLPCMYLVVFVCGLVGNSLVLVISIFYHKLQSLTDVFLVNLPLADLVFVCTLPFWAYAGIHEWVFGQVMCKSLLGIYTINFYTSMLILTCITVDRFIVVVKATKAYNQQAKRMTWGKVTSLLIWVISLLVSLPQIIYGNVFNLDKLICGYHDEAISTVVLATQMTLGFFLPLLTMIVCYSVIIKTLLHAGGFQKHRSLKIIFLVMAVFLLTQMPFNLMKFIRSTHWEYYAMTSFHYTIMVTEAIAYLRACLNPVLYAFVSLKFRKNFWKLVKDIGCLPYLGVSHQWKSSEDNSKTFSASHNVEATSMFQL

[5] = dose range 1, mean IC50 across replicates
[6] = CCR6, dose range 1, mean IC50 across replicates
[7] = CXCR6, dose range 1, mean IC50 across replicates

SMILES	IC50 ([1]; dose range 1)	IC50 [1, 5]	IC50 ([1]; run 2, dose range 1)	IC50 ([1]; run 3, dose range 1)	IC50 ([2]; dose range 1)	IC50 [2, 5]	IC50 ([3]; CCR6, dose range 1)	IC50 [3, 6]	IC50 ([3]; CCR6, run 2, dose range 1)	IC50 ([4]; CXCR6, dose range 1)	IC50 [4, 7]	IC50 ([4]; CXCR6, run 1, dose range 2)	IC50 ([4]; CXCR6, run 2, dose range 1)	IC50 ([4]; CXCR6, run 2, dose range 2)	inhibition [4]
CCS(=O)(=O)c1ncc(Cl)c(C(=O)Nc2ccc(S(=O)(=O)N(C)c3ccccc3)cc2)n1	5.02 µM	5.55 µM	5.84 µM	5.8 µM	> 80 µM (inactive)	> 80 µM	4.87 µM	4.8 µM	4.74 µM	6.29 µM	6.61 µM	6.87 µM	6.54 µM	6.76 µM	
Cc1ccc2c(Cl)cc(Cl)c(O)c2n1	2.79 µM	5.05 µM	5.23 µM	7.12 µM	> 80 µM (inactive)	> 80 µM	3.37 µM	3.57 µM	3.77 µM	4.4 µM	3.59 µM	3.41 µM	> 80 µM	2.96 µM	
COc1cc(/C=C/c2ccc3cccc(O)c3n2)cc(OC)c1OC	4.36 µM	5.15 µM	4.59 µM	6.51 µM	> 80 µM (inactive)	> 80 µM	3.45 µM	4.03 µM	4.62 µM	3.23 µM	3.7 µM	3.35 µM	4.11 µM	4.09 µM	
CCCCCCCCn1sccc1=O	9.73 µM	8.1 µM	7.99 µM	6.58 µM	> 80 µM (inactive)	> 80 µM	6.52 µM	6.83 µM	7.14 µM	6.96 µM	8.16 µM	6.75 µM	8.67 µM	10.2 µM	
O=C1C(=C(c2ccccc2)N2CCOCC2)Cc2ccccc21	15.3 µM	13.2 µM	11.8 µM	12.5 µM	> 80 µM (inactive)	> 80 µM	8.91 µM	8.89 µM	8.87 µM	8.74 µM	9.51 µM	9.93 µM	10.3 µM	9.08 µM	
O=S(=O)(Nc1cccc2cccnc12)c1ccccc1	6.46 µM	9.91 µM	10.7 µM	12.5 µM	> 80 µM (inactive)	> 80 µM	7.66 µM	9.73 µM	11.8 µM	inactive	14.5 µM		14.5 µM		116%
CC(C)(C)C(=O)NC(=S)NNC(=O)c1sc2ccccc2c1Cl	24.4 µM	18.1 µM	15.2 µM	14.7 µM	> 80 µM (inactive)	> 80 µM		34 µM	34 µM	> 80 µM (inactive)	> 80 µM		> 80 µM		63.6%

These reach a lower IC50 [1, 5]. Values come first.

IC50 ([1]; dose range 1)	IC50 [1, 5]	IC50 ([1]; run 2, dose range 1)	IC50 ([1]; run 3, dose range 1)	IC50 ([2]; dose range 1)	IC50 [2, 5]	IC50 ([3]; CCR6, dose range 1)	IC50 [3, 6]	IC50 ([3]; CCR6, run 2, dose range 1)	IC50 ([4]; CXCR6, dose range 1)	IC50 [4, 7]	IC50 ([4]; CXCR6, run 1, dose range 2)	IC50 ([4]; CXCR6, run 2, dose range 1)	IC50 ([4]; CXCR6, run 2, dose range 2)	inhibition [4]	SMILES
4.35 µM	4.53 µM	5.55 µM	3.7 µM	> 80 µM (inactive)	> 80 µM	1.46 µM	1.72 µM	1.98 µM	2.67 µM	2.62 µM		2.57 µM		131%	O=C(C#Cc1ccccc1)c1ccc([N+](=O)[O-])cc1
3.05 µM	3.73 µM	4.26 µM	3.89 µM	> 80 µM (inactive)	> 80 µM	3.32 µM	4.21 µM	5.09 µM	5 µM	4 µM	3.2 µM	4.65 µM	3.15 µM		O=[N+]([O-])c1ccc(Sc2cccc3cccnc23)c([N+](=O)[O-])c1
	2.15 µM	> 80 µM	2.15 µM	> 80 µM (inactive)	> 80 µM	> 80 µM (inactive)	> 80 µM	> 80 µM		10.7 µM	10.6 µM	> 80 µM	10.9 µM		N#Cc1c(C#N)c(SSc2c(C#N)c(C#N)c(N)n2-c2ccccc2)n(-c2ccccc2)c1N
